This is an account of results in patent US8895585B2, “Nicotinamide derivative or salt thereof” (FUJIFILM Corporation, priority 2010, dated 2014).

One assay has as its system THP-1 cells. Nature of the assay: TNFα generation assay. To be noted: Homo sapiens. It is filed as cell-based, human. In a few lines: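 Secreted TNFα in supernatant quantified by ELISA or AlphaLISA after 7 h culture on human IgG-coated wells (10 μg/ml coating). Cells were IFN-γ-differentiated THP-1 (10 ng/ml, 2 days), exposed to compound for 30 min at room temperature before plating.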

In assay [1] the target is T1, glutathione S-transferase (GST)-fused full-length human Syk protein (Homo sapiens, UniProt P43405).
T1 construct: (GST)-fused full-length human Syk protein; GST (glutathione S-transferase); purchased Carna Biosciences
The assay is described as follows: Syk enzyme assay. It is filed as biochemical. In a few lines:
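GST-tagged full-length human Syk (baculovirus) preincubated with compound 15 min at room temperature (pH 7.0, 10 mM MgCl2), then reacted 40 min with 0.4 μM biotinylated peptide substrate and 27 μM ATP (final). Phosphorylation read by HTRF (615/665 nm) after EDTA stop; IC50 reported.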

Setting [2] is: THP-1, THP-1 cells, Table 22, read-out: IC50 in TNFα generation assay.
[3] abbreviates: Syk enzyme assay, Test Example 1, read-out: IC50 of Syk-inhibitory activity.

Molecules are shown by their SMILES. Where two headings read alike, the source gives them in different places.

As for `NC[C@H](Nc1nc(Nc2ccc3ncccc3c2)c(C(N)=O)cc1F)c1ccccc1` [Example 39-4, (R)-6-((2-amino-1-phenylethyl)amino)-5-fluoro-2-((quinolin-6-yl)amino)nicotinamide], the figures for the IC50 (in the assay with THP-1 cells (setting [2]); in assay [1] (setting [3])) were 65 to 130 nM and less than 10 nM, respectively.

`CCCC[C@@H](Nc1nc(Nc2ccnc(OC)c2)c(C(N)=O)cc1F)[C@H](C)N` [Example 006-406, 6-(((2S,3R)-2-aminoheptan-3-yl)amino)-5-fluoro-2-((2-methoxypyridin-4-yl)amino)nicotinamide]: the IC50 with THP-1 cells (setting [2]) was 65 to 130 nM; in assay [1] (setting [3]), less than 10 nM.

Turning to `CC(C)C[C@H](CN)Nc1nc(Nc2cncc(-n3cccn3)c2)c(C(N)=O)cc1F` [Example 006-170, (R)-2-((5-(1H-pyrazol-1-yl)pyridin-3-yl)amino)-6-((1-amino-4-methylpentan-2-yl)amino)-5-fluoronicotinamide], the IC50 is 65 to 130 nM in the assay with THP-1 cells (setting [2]) and less than 10 nM in assay [1] (setting [3]).

In the case of `CCC[C@@H](Nc1nc(Nc2cnc3ccc(OC)cc3c2)c(C(N)=O)cc1F)[C@H](C)N` [Example 006-242, 6-(((2S,3R)-2-aminohexan-3-yl)amino)-5-fluoro-2-((6-methoxyquinolin-3-yl)amino)nicotinamide], the results for the IC50 (in the assay on THP-1 cells (setting [2]); in assay [1] (setting [3])) were 65 to 130 nM and less than 10 nM, respectively.

As for `NC(=O)c1cc(F)c(N[C@@H]2CCCC[C@@H]2N)nc1Nc1cncc(Cl)c1` (relative stereo) [Example 004-097, 6-(cis-2-aminocyclohexylamino)-2-((5-chloropyridin-3-yl)amino)-5-fluoronicotinamide], the IC50 was 65 to 130 nM in the assay on THP-1 cells (setting [2]) and less than 10 nM in assay [1] (setting [3]).

As to `NC(=O)c1cc(F)c(N[C@@H]2CCCC[C@@H]2N)nc1Nc1cc([N+](=O)[O-])c2[nH]ccc2c1` (relative stereo) [Example 004-089, 6-(cis-2-aminocyclohexylamino)-5-fluoro-2-((7-nitro-1H-indol-5-yl)amino)nicotinamide], the figures for the IC50 (in the assay on THP-1 cells (setting [2]); in assay [1] (setting [3])) were 65 to 130 nM and less than 10 nM, respectively.

Regarding `NC(=O)c1cc(F)c(N[C@@H](C(N)=O)c2ccccc2)nc1Nc1ccc2ncccc2c1` [Example 12-8, 6-(((1R)-2-amino-2-oxo-1-phenylethyl)amino)-5-fluoro-2-(quinolin-6-ylamino)nicotinamide], the IC50 in the assay on THP-1 cells (THP-1, 7 h, IFN-γ-differentiated THP-1 cells on human IgG-coated plate, cultured 7 hours, read-out: TNFα generation inhibitory activity (IC50)) was not above 200 nM; in assay [1] (read-out: Syk-inhibitory activity (IC50)), not above 1000 nM.

Take `CCc1nn(C)c2ccc(Nc3nc(N[C@H](CC4CC4)[C@H](C)N)c(F)cc3C(N)=O)cc12` [Example 006-505, 6-(((2R,3S)-3-amino-1-cyclopropylbutan-2-yl)amino)-2-((3-ethyl-1-methyl-1H-indazol-5-yl)amino)-5-fluoronicotinamide]: the IC50 is 130 to 200 nM in the assay on THP-1 cells (setting [2]) and less than 10 nM in assay [1] (setting [3]).

Regarding `NC[C@H](Nc1nc(Nc2cccc(-n3nccn3)c2)c(C(N)=O)cc1F)c1ccccc1` [Example 006-132, (R)-2-((3-(2H-1,2,3-triazol-2-yl)phenyl)amino)-6-((2-amino-1-phenylethyl)amino)-5-fluoronicotinamide], the IC50 with THP-1 cells (setting [2]) was 130 to 200 nM; in assay [1] (setting [3]) it was less than 10 nM.

`NC(=O)c1cc(F)c(N[C@@H]2CCCC[C@@H]2N)nc1Nc1cnc2cc(N)ccc2c1` (relative stereo) [Example 004-125, 6-(cis-2-aminocyclohexylamino)-2-((7-aminoquinolin-3-yl)amino)-5-fluoronicotinamide]: the IC50 in the assay on THP-1 cells (setting [2]) was 65 to 130 nM; in assay [1] (setting [3]) it was less than 10 nM.

`CCCC[C@@H](Nc1nc(Nc2ccc3c(cnn3CC)c2)c(C(N)=O)cc1F)[C@H](C)N` [Example 006-388, 6-(((2S,3R)-2-aminoheptane-3-yl)amino)-2-((1-ethyl-1H-indazol-5-yl)amino)-5-fluoronicotinamide]: the results for the IC50 (in the assay on THP-1 cells (setting [2]); in assay [1] (setting [3])) were 65 to 130 nM and less than 10 nM, respectively.

As for `NC(=O)c1cc(F)c(NC2CCCCC2N)nc1Nc1cnc2ncccc2c1` (stereo not drawn) [Example 010-002], the IC50 in the assay with THP-1 cells (setting [2]) is 130 to 200 nM; in assay [1] (setting [3]), 10 to 50 nM.
